Measurements published in US4001218A, “Penicillins” (Bayer Aktiengesellschaft, priority 1972, dated 1977).

Assays:
Salmonella sp. = assay: turbidity test at 100 μg/ml; type: cell-based
[1] = tested on: Neisseria cartarrhalis sp.; assay: turbidity test at 100 μg/ml; type: cell-based; conditions: 24 hours
Brucella sp. = type: cell-based; conditions: 100 μg/ml, 24 hours
Proteus vulg. 1017 = type: cell-based, Proteus vulgaris; conditions: Proteus 1017; 24 hours, 37°C
[2] = tested on: Corynebacterium diphteriae gravis; assay: turbidity test at 100 μg/ml; type: cell-based; conditions: 24 hours
[3] = tested on: Diplococcus pneumoniae sp.; assay: turbidity test at 100 μg/ml; type: cell-based; conditions: 24 hours
[4] = tested on: Proteus, indole-negative, sp.; assay: turbidity test at 100 μg/ml; type: cell-based; conditions: 24 hours
Serratia sp. = assay: turbidity test at 100 μg/ml; type: cell-based; conditions: 24 hours
[5] = tested on: Proteus, indole-positive, sp.; assay: turbidity test at 100 μg/ml; type: cell-based; conditions: 24 hours
Enterococcus sp. = assay: turbidity test at 100 μg/ml; type: cell-based; conditions: 24 hours
E. coli 14 [6] = assay: turbidity test at 100 μg/ml; type: cell-based; conditions: 24 hours
Proteus vulgaris 1017 = assay: turbidity test at 100 μg/ml; type: cell-based; conditions: 24 hours
E. coli A 261 = assay: MIC, test tube series dilution test, E. coli A 261; type: cell-based; conditions: 24 hours, 37°C
[7] = tested on: Pasteurella pseudotuberculosis; type: cell-based; conditions: 100 μg/ml, 24 hours
Bacteroides sp. = assay: turbidity test at 100 μg/ml; type: cell-based; conditions: 24 hours
Haemophilus influenzae = assay: turbidity test at 100 μg/ml; type: cell-based; conditions: 24 hours
Clostridium botulinium = type: cell-based
Staph. aureus 133 = type: cell-based, Staphylococcus aureus; conditions: Staph. aureus 133; 24 hours, 37°C
[8] = tested on: Bordetella bronchiseptica; assay: turbidity test at 100 μg/ml; type: cell-based; conditions: 24 hours
Klebsiella 63 [9] = assay: MIC, test tube series dilution test, Klebsiella 63; type: cell-based; conditions: Klebsiella 63; 24 hours, 37°C
Proteus morg. 932 = assay: MIC, test tube series dilution test, Proteus morg. 932; type: cell-based; conditions: 24 hours, 37°C
Borrelia sp. = assay: turbidity test at 100 μg/ml; type: cell-based; conditions: 24 hours
Aeromonas hydrophila sp. = assay: turbidity test at 100 μg/ml; type: cell-based; conditions: 24 hours
Klebsiella 63 [10] = assay: turbidity test at 100 μg/ml; type: cell-based; conditions: 24 hours
Enterococcus 9790 = assay: MIC, test tube series dilution test, Enterococcus 9790; type: cell-based; conditions: 24 hours, 37°C
Staph. aureus 1756 = assay: MIC, test tube series dilution test, Staph. aureus 1756; type: cell-based, Staphylococcus aureus; conditions: Staph. aureus 1756; 24 hours, 37°C
Streptococcus pyogenes W = assay: turbidity test at 100 μg/ml; type: cell-based; conditions: 24 hours
E. coli C 165 = assay: MIC, test tube series dilution test, E. coli C 165; type: cell-based; conditions: 24 hours, 37°C
Clostridium tetani = type: cell-based; conditions: 100 μg/ml, 24 hours
[11] = tested on: Pseudomonas aeruginosa sp.; assay: turbidity test at 100 μg/ml; type: cell-based; conditions: 24 hours
Klebsiella 62 = assay: animal experiment, Klebsiella 62 infection; conditions: s.c. 2 × 3000 Units per animal, experiment with Ex.1
E. coli 14 [12] = type: cell-based; conditions: E. coli 14; 24 hours, 37°C
E. Coli c165 = assay: turbidity test at 100 μg/ml; type: cell-based; conditions: 24 hours
[13] = tested on: Staphylococcus aureus 133; assay: turbidity test at 100 μg/ml; type: cell-based; conditions: 24 hours
[14] = tested on: Corynebacterium pyogenes M; assay: turbidity test at 100 μg/ml; type: cell-based; conditions: 24 hours
Psdm. aerug. Walter = assay: MIC, test tube series dilution test, Psdm. aerug. Walter; type: cell-based, Pseudomonas aeruginosa; conditions: Psdm. aerug. Walter; 24 hours, 37°C
E. coli 183/58 = assay: MIC, test tube series dilution test, E. coli 183/58; type: cell-based; conditions: 24 hours, 37°C
Enterobacter sp. = assay: turbidity test at 100 μg/ml; type: cell-based; conditions: 24 hours
Klebsiella K 10 [15] = assay: MIC, test tube series dilution test, Klebsiella K 10; type: cell-based; conditions: 24 hours, 37°C
Lactobacillus sp. = assay: turbidity test at 100 μg/ml; type: cell-based; conditions: 24 hours
Shigella sp. = assay: turbidity test at 100 μg/ml; type: cell-based
Klebsiella K 10 [16] = assay: turbidity test at 100 μg/ml; type: cell-based; conditions: 24 hours
Psdm. aerug. F 41 = assay: MIC, test tube series dilution test, Psdm. aerug. F 41; type: cell-based, Pseudomonas aeruginosa; conditions: Psdm. aerug. F 41; 24 hours, 37°C

Q: Which results are given for `CC1(C)S[C@@H]2[C@H](NC(=O)[C@H](NC(=O)c3ccc(NC(=O)C4CC4)cc3)c3ccccc3)C(=O)N2[C@H]1C(=O)O` [Example 1, sodium D(-)-α-(4-cyclopropanecarbonylamino-benzoylamino)-benzylpenicillin]?
A: degree of turbidity (Salmonella sp.): non-turbid; degree of turbidity [1]: non-turbid; degree of turbidity (Brucella sp.): non-turbid; MIC (Proteus vulg. 1017): < 32 U/ml; degree of turbidity [2]: non-turbid; degree of turbidity [3]: non-turbid; degree of turbidity [4]: non-turbid; degree of turbidity (Serratia sp.): non-turbid; degree of turbidity [5]: non-turbid; degree of turbidity (Enterococcus sp.): non-turbid; degree of turbidity (E. coli 14 [6]): non-turbid; degree of turbidity (Proteus vulgaris 1017): non-turbid; MIC (E. coli A 261): > 256 U/ml; degree of turbidity [7]: non-turbid; degree of turbidity (Bacteroides sp.): non-turbid; degree of turbidity (Haemophilus influenzae): non-turbid; degree of turbidity (Clostridium botulinium): non-turbid; MIC (Staph. aureus 133): < 1 U/ml; degree of turbidity [8]: non-turbid; MIC (Klebsiella 63 [9]): 64 U/ml; MIC (Proteus morg. 932): 8 U/ml; degree of turbidity (Borrelia sp.): non-turbid; degree of turbidity (Aeromonas hydrophila sp.): non-turbid; degree of turbidity (Klebsiella 63 [10]): non-turbid; MIC (Enterococcus 9790): ~ 8 U/ml; MIC (Staph. aureus 1756): 64 U/ml; degree of turbidity (Streptococcus pyogenes W): non-turbid; MIC (E. coli C 165): 16 U/ml; degree of turbidity (Clostridium tetani): non-turbid; degree of turbidity [11]: non-turbid; Surviving animals (Klebsiella 62; 1st day after infection): 100%; Surviving animals (Klebsiella 62; 2nd day after infection): 100%; Surviving animals (Klebsiella 62; 3rd day after infection): 50%; Surviving animals (Klebsiella 62; 5th day after infection): 50%; MIC (E. coli 14 [12]): 4 U/ml; degree of turbidity (E. Coli c165): non-turbid; degree of turbidity [13]: non-turbid; degree of turbidity [14]: non-turbid; MIC (Psdm. aerug. Walter): 16 U/ml; MIC (E. coli 183/58): 16 U/ml; degree of turbidity (Enterobacter sp.): non-turbid; MIC (Klebsiella K 10 [15]): 64 U/ml; degree of turbidity (Lactobacillus sp.): non-turbid; degree of turbidity (Shigella sp.): non-turbid; degree of turbidity (Klebsiella K 10 [16]): non-turbid; MIC (Psdm. aerug. F 41): 32 U/ml
